The test concerns Ba/F3 cells expressing EGFR Del19/C797S (EGFR DC). Kind of test: Proliferation inhibitory activity, Ba/F3 cells expressing EGFR Del19/C797S (CellTiter-Glo). It counts as cell-based. To be noted: Mus musculus, BaF3, 72 hours of compound treatment. Summed up: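 Viability after 72 h of compound exposure was measured by luminescence (CellTiter-Glo) in Ba/F3 lines transduced with mutant EGFR. Final concentrations spanned 0.2 nM–5 μM over 12 threefold steps. Growth relative to untreated control gave GI50 values; each test was run three times.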
A general note: Cellular ATP, detected with luciferase, serves as a proxy for viable cell number.

With `c1ccc([C@H]2CCON2c2cc(Nc3ccc(N4CCN(C5COC5)CC4)cc3)ncn2)cc1` [Example 124, (R)—N-(4-(4-(oxetan-3-yl)piperazin-1-yl)phenyl)-6-(3-phenylisoxazolidin-2-yl)pyrimidin-4-amine], the concentration for 50% growth inhibition (GI50) is < 0.05 µM.

As to `COc1cc(Nc2cc(N3OCC[C@@H]3c3cccc(Cl)c3F)ncn2)ccc1N1CCC(N2CCN(C)CC2)CC1` [Example 125, (R)-6-(3-(3-chloro-2-fluorophenyl)isoxazolidin-2-yl)-N-(3-methoxy-4-(4-(4-methylpiperazin-1-yl)piperidin-1-yl)phenyl)pyrimidin-4-amine], the 50% growth inhibitory concentration (GI50) was < 0.05 µM.

In the case of `Cc1cc(Nc2cc(N3OCC[C@@H]3c3cccc(F)c3F)ncn2)ccc1N1CCC(N2CCN(C)CC2)CC1` [Example 126, (R)-6-(3-(2,3-difluorophenyl)isoxazolidin-2-yl)-N-(3-methyl-4-(4-(4-methylpiperazin-1-yl)piperidin-1-yl)phenyl)pyrimidin-4-amine], the 50% growth inhibitory concentration (GI50) is < 0.05 µM.

As to `CN(C)C1CCN(c2ccc(Nc3cc(N4OCC[C@@H]4c4ccccc4)ncn3)cc2)CC1` [Example 127, (R)—N-(4-(4-(dimethylamino)piperidin-1-yl)phenyl)-6-(3-phenylisoxazolidin-2-yl)pyrimidin-4-amine], the 50% growth inhibitory concentration (GI50) was < 0.05 µM.

Turning to `COc1cc(N2CCC(N3CCN(C)CC3)CC2)ccc1Nc1cc(N2OCC[C@@H]2c2ccc(F)c(Cl)c2F)ncn1` [Example 130, (R)-6-(3-(3-chloro-2,4-difluorophenyl)isoxazolidin-2-yl)-N-(2-methoxy-4-(4-(4-methylpiperazin-1-yl)piperidin-1-yl)phenyl)pyrimidin-4-amine], the GI50 fell in the range of 0.05 to 0.5 µM.

For the compound `COc1cc(N2CCC(N3CCN(C)CC3)CC2)ccc1Nc1cc(N2OCC[C@@H]2c2cccc(N(C)C)c2)ncn1` [Example 131, (R)-6-(3-(3-(dimethylamino)phenyl)isoxazolidin-2-yl)-N-(2-methoxy-4-(4-(4-methylpiperazin-1-yl)piperidin-1-yl)phenyl)pyrimidin-4-amine], the GI50 lay in the range of 0.05 to 0.5 µM.

Turning to `Cn1cc(Nc2cc(N3OCC[C@@H]3c3ccccc3)ncn2)cn1` [Example 133, (R)—N-(1-methyl-1H-pyrazol-4-yl)-6-(3-phenylisoxazolidin-2-yl)pyrimidin-4-amine], the concentration for 50% growth inhibition (GI50) was in the range of 0.05 to 0.5 µM.

Regarding `CC(C)(C)OC(=O)N1CCc2ccc(Nc3cc(N4OCC[C@@H]4c4ccccc4)ncn3)cc2C1` [Example 134, tert-butyl (R)-7-((6-(3-phenylisoxazolidin-2-yl)pyrimidin-4-yl)amino)-3,4-dihydroisoquinoline-2 (1H)-carboxylate], the GI50 is < 0.05 µM.

As to `CN1CCC2(CC1)CCN(c1ccc(Nc3cc(N4OCC[C@@H]4c4ccccc4)ncn3)cc1)CC2` [Example 135, (R)—N-(4-(9-methyl-3,9-diazaspiro[5.5]undecan-3-yl)phenyl)-6-(3-phenylisoxazolidin-2-yl)pyrimidin-4-amine], the concentration for 50% growth inhibition (GI50) is < 0.05 µM.

Take `CN1C2CC1CN(c1ccc(Nc3cc(N4OCC[C@@H]4c4ccccc4)ncn3)cc1)C2` [Example 136, N-(4-(6-methyl-3,6-diazabicyclo[3.1.1]heptan-3-yl)phenyl)-6-((R)-3-phenylisoxazolidin-2-yl)pyrimidin-4-amine]: the 50% growth inhibitory concentration (GI50) is < 0.05 µM.

With `CN1CCN(c2ccc(Nc3cc(N4OCC[C@@H]4c4ccccc4)ncn3)cc2OCC(F)(F)F)CC1` [Example 139, (R)—N-(4-(4-methylpiperazin-1-yl)-3-(2,2,2-trifluoroethoxy)phenyl)-6-(3-phenylisoxazolidin-2-yl)pyrimidin-4-amine], the 50% growth inhibitory concentration (GI50) is < 0.05 µM.

In the case of `COc1cc(N2CCC(N3CCN(C)CC3)C(F)C2)ccc1Nc1cc(N2OCC[C@@H]2c2cccc(F)c2F)ncn1` (stereo partly drawn) [Example 140, 6-((R)-3-(2,3-difluorophenyl)isoxazolidin-2-yl)-N-(4-(3-fluoro-4-(4-methylpiperazin-1-yl)piperidin-1-yl)-2-methoxyphenyl)pyrimidin-4-amine], the GI50 is < 0.05 µM.

The GI50 is the concentration giving 50% growth inhibition.
